Assay results: patent US4156724A, “N-acylamino-alpha-arylacetamido cephalosporins and antibacterial compositions and methods containing them” (Sumitomo Chemical Company, Limited, priority 1974, dated 1979)
≈ marks a conversion by molar mass, not a printed value.

Tests used:
Type in all cases: cell-based
[1] = system: Klebsiella pneumoniae 602; test: Minimum Inhibitory Concentration, Klebsiella pneumoniae 602; settings: Klebsiella pneumoniae, 602, Klebsiella pneumoniae 602; read-out: Minimum Inhibitory Concentration
Procedure: (§1) anti-microbial activity tests were carried out on the compounds obtained in the Examples.

[2] = system: Staphylococcus aureus FS 289; test: Minimum Inhibitory Concentration, Staphylococcus aureus FS 289; settings: FS289; Staphylococcus aureus FS 289, strain resistant to penicillin; read-out: Minimum Inhibitory Concentration
Procedure: as §1
*Staphylococcus aureus FS 289: strain resistant to penicillin

Serratia No. 72 = test: Minimum Inhibitory Concentration, Serratia No. 72
Procedure: as §1

Escherichia coli NIHJ = test: Minimum Inhibitory Concentration, Escherichia coli NIHJ; settings: Escherichia coli NIHJ; read-out: Minimum Inhibitory Concentration
Procedure: as §1

Proteus vulgaris HX 19 = test: Minimum Inhibitory Concentration, Proteus vulgaris HX 19; settings: HX19; Proteus vulgaris HX 19; read-out: Minimum Inhibitory Concentration
Procedure: as §1

[3] = system: Pseudomonas aeruginosa 104; test: Minimum Inhibitory Concentration, Pseudomonas aeruginosa 104; settings: Pseudomonas aeruginosa 104; read-out: Minimum Inhibitory Concentration
Procedure: as §1

[4] = system: Enterobacter aerogeneus No. 75; test: Minimum Inhibitory Concentration, Enterobacter aerogeneus No. 75; settings: Enterobacter aerogeneus No. 75; read-out: Minimum Inhibitory Concentration
Procedure: as §1

[5] = system: Staphylococcus aureus 209 P; test: Minimum Inhibitory Concentration, Staphylococcus aureus 209 P; settings: Staphylococcus aureus 209 P; read-out: Minimum Inhibitory Concentration
Procedure: as §1

Row | SMILES | MIC [1] [µg/mL] | MIC [2] [µg/mL] | MIC (Serratia No. 72) [µg/mL] | MIC (Escherichia coli NIHJ) [µg/mL] | MIC (Proteus vulgaris HX 19) [µg/mL] | MIC [3] [µg/mL] | MIC [4] [µg/mL] | MIC [5] [µg/mL]
1 | COc1cnc2c(O)c(C(=O)N[C@@H](C(=O)N[C@@H]3C(=O)N4C(C(=O)O)=C(COC(C)=O)CS[C@H]34)c3cccc(NC(N)=O)c3)cnc2n1 [Example 31] | 3.13 (≈ 4.7 µM) | 6.25 (≈ 9.38 µM) | 50 (≈ 75 µM) | 3.13 (≈ 4.7 µM) | 0.39 (≈ 0.585 µM) | 6.25 (≈ 9.38 µM) | 25 (≈ 37.5 µM) | 0.78 (≈ 1.17 µM)
2 | CC(=O)OCC1=C(C(=O)O)N2C(=O)[C@@H](NC(=O)[C@H](NC(=O)c3cnc4cncnc4c3O)c3cccc(NC(N)=O)c3)[C@H]2SC1 [Example 32] | 3.13 (≈ 4.92 µM) | 6.25 (≈ 9.82 µM) | 50 (≈ 78.5 µM) | 3.13 (≈ 4.92 µM) | 0.39 (≈ 0.613 µM) | 6.25 (≈ 9.82 µM) | 12.5 (≈ 19.6 µM) | 0.78 (≈ 1.23 µM)
3 | COc1ccc2ncc(C(=O)N[C@@H](C(=O)N[C@@H]3C(=O)N4C(C(=O)O)=C(COC(C)=O)CS[C@H]34)c3cccc(NC(N)=O)c3)c(O)c2n1 [Example 33] | 3.13 (≈ 4.7 µM) | 6.78 (≈ 10.2 µM) | 50 (≈ 75.1 µM) | 3.13 (≈ 4.7 µM) | 0.78 (≈ 1.17 µM) | 6.25 (≈ 9.39 µM) | 12.5 (≈ 18.8 µM) | 0.78 (≈ 1.17 µM)
4 | CSc1ccc2ncc(C(=O)N[C@@H](C(=O)N[C@@H]3C(=O)N4C(C(=O)O)=C(COC(C)=O)CS[C@H]34)c3cccc(NC(N)=O)c3)c(O)c2n1 [Example 34] | 3.13 (≈ 4.59 µM) | 6.25 (≈ 9.17 µM) | 50 (≈ 73.3 µM) | 3.13 (≈ 4.59 µM) | 0.78 (≈ 1.14 µM) | 6.25 (≈ 9.17 µM) | 12.5 (≈ 18.3 µM) | 0.78 (≈ 1.14 µM)
5 | CC(=O)OCC1=C(C(=O)O)N2C(=O)[C@@H](NC(=O)[C@H](NC(=O)c3cnc4nc(C)c(C)nc4c3O)c3ccc(NC(N)=O)cc3)[C@H]2SC1 [Example 35] | 3.13 (≈ 4.71 µM) | 6.25 (≈ 9.4 µM) | 50 (≈ 75.2 µM) | 6.25 (≈ 9.4 µM) | 0.39 (≈ 0.587 µM) | 6.25 (≈ 9.4 µM) | 25 (≈ 37.6 µM) | 1.56 (≈ 2.35 µM)
6 | NC(=O)Nc1cccc([C@@H](NC(=O)c2cnc3cccnc3c2O)C(=O)N[C@@H]2C(=O)N3C(C(=O)O)=C(CSc4nnc(CO)s4)CS[C@H]23)c1 [Example 36] | 1.56 (≈ 2.16 µM) | 6.25 (≈ 8.64 µM) | 12.5 (≈ 17.3 µM) | 3.13 (≈ 4.32 µM) | 0.2 (≈ 0.276 µM) | 3.13 (≈ 4.32 µM) | 6.25 (≈ 8.64 µM) | 0.78 (≈ 1.08 µM)
7 | NC(=O)Nc1cccc([C@@H](NC(=O)c2cnc3cccnc3c2O)C(=O)N[C@@H]2C(=O)N3C(C(=O)O)=C(CSc4ccc(O)nn4)CS[C@H]23)c1 [Example 37] | 1.56 (≈ 2.22 µM) | 6.25 (≈ 8.88 µM) | 12.5 (≈ 17.8 µM) | 1.56 (≈ 2.22 µM) | 0.2 (≈ 0.284 µM) | 3.13 (≈ 4.45 µM) | 6.25 (≈ 8.88 µM) | 0.78 (≈ 1.11 µM)
8 | Cn1nnnc1SCC1=C(C(=O)O)N2C(=O)[C@@H](NC(=O)[C@H](NC(=O)c3cnc4cccnc4c3O)c3cccc(NC(N)=O)c3)[C@H]2SC1 [Example 38] | 1.56 (≈ 2.26 µM) | 6.25 (≈ 9.04 µM) | 12.5 (≈ 18.1 µM) | 1.56 (≈ 2.26 µM) | 0.1 (≈ 0.145 µM) | 3.13 (≈ 4.53 µM) | 3.13 (≈ 4.53 µM) | 0.78 (≈ 1.13 µM)
9 | COc1ccc2ncc(C(=O)N[C@@H](C(=O)N[C@@H]3C(=O)N4C(C(=O)O)=C(CSc5nnnn5C)CS[C@H]34)c3cccc(NC(N)=O)c3)c(O)c2n1 [Example 39] | 1.56 (≈ 2.16 µM) | 6.25 (≈ 8.66 µM) | 12.5 (≈ 17.3 µM) | 1.56 (≈ 2.16 µM) | 0.1 (≈ 0.139 µM) | 3.13 (≈ 4.34 µM) | 3.13 (≈ 4.34 µM) | 0.78 (≈ 1.08 µM)
10 | CSc1ccc2ncc(C(=O)N[C@@H](C(=O)N[C@@H]3C(=O)N4C(C(=O)O)=C(CSc5nnc(C)s5)CS[C@H]34)c3cccc(NC(N)=O)c3)c(O)c2n1 [Example 40] | 1.56 (≈ 2.07 µM) | 6.25 (≈ 8.29 µM) | 12.5 (≈ 16.6 µM) | 3.13 (≈ 4.15 µM) | 0.1 (≈ 0.133 µM) | 3.13 (≈ 4.15 µM) | 6.25 (≈ 8.29 µM) | 0.78 (≈ 1.03 µM)
11 | CSc1cnc2c(O)c(C(=O)NC(C(=O)NC3C(=O)N4C(C(=O)O)=C(CSc5nnnn5C)CSC34)c3cccc(NC(N)=O)c3)cnc2n1 (stereo not shown) [Example 41] | 3.13 (≈ 4.24 µM) | 6.25 (≈ 8.46 µM) | 12.5 (≈ 16.9 µM) | 3.13 (≈ 4.24 µM) | 0.2 (≈ 0.271 µM) | 6.25 (≈ 8.46 µM) | 6.25 (≈ 8.46 µM) | 1.56 (≈ 2.11 µM)
12 | Cc1nc2ncc(C(=O)NC(C(=O)NC3C(=O)N4C(C(=O)O)=C(CSc5nnnn5C)CSC34)c3cccc(NC(N)=O)c3)c(O)c2nc1C (stereo not shown) [Example 42] | 3.13 (≈ 4.34 µM) | 6.25 (≈ 8.67 µM) | 12.5 (≈ 17.3 µM) | 3.13 (≈ 4.34 µM) | 0.2 (≈ 0.277 µM) | 6.25 (≈ 8.67 µM) | 6.25 (≈ 8.67 µM) | 1.56 (≈ 2.16 µM)
13 | Cn1nnnc1SCC1=C(C(=O)O)N2C(=O)C(NC(=O)C(NC(=O)c3cnc4sccc4c3O)c3cccc(NC(N)=O)c3)C2SC1 (stereo not shown) [Example 43] | 3.13 (≈ 4.49 µM) | 6.25 (≈ 8.97 µM) | 12.5 (≈ 17.9 µM) | 6.25 (≈ 8.97 µM) | 0.39 (≈ 0.56 µM) | 6.25 (≈ 8.97 µM) | 6.25 (≈ 8.97 µM) | 0.78 (≈ 1.12 µM)
14 | Cn1nnnc1SCC1=C(C(=O)O)N2C(=O)C(NC(=O)C(NC(=O)c3cnc4scnc4c3O)c3cccc(NC(N)=O)c3)C2SC1 (stereo not shown) [Example 44] | 3.13 (≈ 4.49 µM) | 6.25 (≈ 8.96 µM) | 12.5 (≈ 17.9 µM) | 6.25 (≈ 8.96 µM) | 0.39 (≈ 0.559 µM) | 6.25 (≈ 8.96 µM) | 6.25 (≈ 8.96 µM) | 0.78 (≈ 1.12 µM)
15 | NC(=O)Nc1cccc(C(NC(=O)c2cnccc2O)C(=O)NC2C(=O)N3C(C(=O)O)=C(CSc4nnc(CO)s4)CSC23)c1 (stereo not shown) [Example 45] | 3.13 (≈ 4.65 µM) | 6.25 (≈ 9.29 µM) | 50 (≈ 74.3 µM) | 12.5 (≈ 18.6 µM) | 0.39 (≈ 0.58 µM) | 12.5 (≈ 18.6 µM) | 12.5 (≈ 18.6 µM) | 0.39 (≈ 0.58 µM)
16 | NC(=O)Nc1cccc(C(NC(=O)c2cnccc2O)C(=O)NC2C(=O)N3C(C(=O)O)=C(CSc4ccc(O)nn4)CSC23)c1 (stereo not shown) [Example 46] | 3.13 (≈ 4.8 µM) | 6.25 (≈ 9.58 µM) | 50 (≈ 76.6 µM) | 12.5 (≈ 19.2 µM) | 0.39 (≈ 0.598 µM) | 12.5 (≈ 19.2 µM) | 12.5 (≈ 19.2 µM) | 0.78 (≈ 1.2 µM)
17 | NC(=O)Nc1ccc(C(NC(=O)c2cnccc2O)C(=O)NC2C(=O)N3C(C(=O)O)=C(CSc4nnc(CO)s4)CSC23)cc1 (stereo not shown) [Example 47] | 3.13 (≈ 4.65 µM) | 6.25 (≈ 9.29 µM) | 50 (≈ 74.3 µM) | 12.5 (≈ 18.6 µM) | 0.39 (≈ 0.58 µM) | 12.5 (≈ 18.6 µM) | 12.5 (≈ 18.6 µM) | 0.78 (≈ 1.16 µM)
18 | NC(=O)Nc1cccc(C(NC(=O)c2ccnnc2O)C(=O)NC2C(=O)N3C(C(=O)O)=C(CSc4nnc(CO)s4)CSC23)c1 (stereo not shown) [Example 48] | 3.13 (≈ 4.65 µM) | 12.5 (≈ 18.6 µM) | 100 (≈ 148 µM) | 12.5 (≈ 18.6 µM) | 0.78 (≈ 1.16 µM) | 25 (≈ 37.1 µM) | 25 (≈ 37.1 µM) | 0.78 (≈ 1.16 µM)
19 | NC(=O)Nc1cccc(C(NC(=O)c2cccnc2O)C(=O)NC2C(=O)N3C(C(=O)O)=C(CSc4nnc(CO)s4)CSC23)c1 (stereo not shown) [Example 49] | 6.25 (≈ 9.29 µM) | 12.5 (≈ 18.6 µM) | 50 (≈ 74.3 µM) | 12.5 (≈ 18.6 µM) | 0.78 (≈ 1.16 µM) | 25 (≈ 37.2 µM) | 25 (≈ 37.2 µM) | 0.78 (≈ 1.16 µM)
20 | CC(=O)OCC1=C(C(=O)O)N2C(=O)C(NC(=O)[C@H](NC(=O)c3cnc4cccnc4c3O)c3ccc(N)cc3)C2SC1 (stereo partly drawn) [Example 50, 7-[D-α-(4-Hydroxy-1,5-naphthyridine-3-carboxyamido)-α-p-aminophenylacetamido]cephalosporanic Acid] | 3.13 (≈ 5.28 µM) | 6.25 (≈ 10.5 µM) | 50 (≈ 84.4 µM) | 3.13 (≈ 5.28 µM) | 0.39 (≈ 0.658 µM) | 6.25 (≈ 10.5 µM) | 6.25 (≈ 10.5 µM) | 1.56 (≈ 2.63 µM)
